Assay results reported in patent publication US20230295212A1 (ROME Therapeutics, Inc., priority 2022, published 2023).

target: T1, LINE1 reverse transcriptase (Homo sapiens, UniProt O00370); assay: Stable artificial-intron Cis LINE1 reporter assay (HeLa Tet-On 3G, Firefly luciferase); format: cell-based; conditions: HeLa L1 artificial-intron reporter cells, doxycycline 500 ng/mL, 72 h, class symbols
T1 construct: expressed in transfected cells; host or cells: HeLa Tet-On 3G (Takara, cat no 631183)
Experimental: Exemplary compounds, were tested for the ability to inhibit LINE1 reverse transcriptase using a stable artificial-intron Cis LINE1 reporter assay. Assay procedures and results are described below.
A stable HeLa Tet-On 3G (Takara, cat no 631183) cell line expressing a bi-directional inducible LINE1 construct was generated as described in Xie, Y. et al. “Cell division promotes efficient retrotransposition in a stable L1 reporter cell line,” Mobile DNA (2013) 4:10. Single cell clones were screened for high Luciferase expression and the highest expression Firefly expressing clone was chosen for compound testing.
Test compounds were serially diluted in DMSO and spotted in 96-well plates. Subsequently, the HeLa Li artificial-intron reporter cells were plated into the compound-containing wells (8,000 cells/well), and the cells were induced for reporter expression with doxycycline (Sigma-Aldrich cat #D9891) at a final concentration of 500 ng/mL. Luminescence was measured 72 h after plating using the Dual-Glo Luciferase Assay System (Promega cat #E2940) following the manufacturer's instructions. The Firefly Luciferase activity was used to report LINE1 activity.

T1 sequence (O00370 whole entry, looked up): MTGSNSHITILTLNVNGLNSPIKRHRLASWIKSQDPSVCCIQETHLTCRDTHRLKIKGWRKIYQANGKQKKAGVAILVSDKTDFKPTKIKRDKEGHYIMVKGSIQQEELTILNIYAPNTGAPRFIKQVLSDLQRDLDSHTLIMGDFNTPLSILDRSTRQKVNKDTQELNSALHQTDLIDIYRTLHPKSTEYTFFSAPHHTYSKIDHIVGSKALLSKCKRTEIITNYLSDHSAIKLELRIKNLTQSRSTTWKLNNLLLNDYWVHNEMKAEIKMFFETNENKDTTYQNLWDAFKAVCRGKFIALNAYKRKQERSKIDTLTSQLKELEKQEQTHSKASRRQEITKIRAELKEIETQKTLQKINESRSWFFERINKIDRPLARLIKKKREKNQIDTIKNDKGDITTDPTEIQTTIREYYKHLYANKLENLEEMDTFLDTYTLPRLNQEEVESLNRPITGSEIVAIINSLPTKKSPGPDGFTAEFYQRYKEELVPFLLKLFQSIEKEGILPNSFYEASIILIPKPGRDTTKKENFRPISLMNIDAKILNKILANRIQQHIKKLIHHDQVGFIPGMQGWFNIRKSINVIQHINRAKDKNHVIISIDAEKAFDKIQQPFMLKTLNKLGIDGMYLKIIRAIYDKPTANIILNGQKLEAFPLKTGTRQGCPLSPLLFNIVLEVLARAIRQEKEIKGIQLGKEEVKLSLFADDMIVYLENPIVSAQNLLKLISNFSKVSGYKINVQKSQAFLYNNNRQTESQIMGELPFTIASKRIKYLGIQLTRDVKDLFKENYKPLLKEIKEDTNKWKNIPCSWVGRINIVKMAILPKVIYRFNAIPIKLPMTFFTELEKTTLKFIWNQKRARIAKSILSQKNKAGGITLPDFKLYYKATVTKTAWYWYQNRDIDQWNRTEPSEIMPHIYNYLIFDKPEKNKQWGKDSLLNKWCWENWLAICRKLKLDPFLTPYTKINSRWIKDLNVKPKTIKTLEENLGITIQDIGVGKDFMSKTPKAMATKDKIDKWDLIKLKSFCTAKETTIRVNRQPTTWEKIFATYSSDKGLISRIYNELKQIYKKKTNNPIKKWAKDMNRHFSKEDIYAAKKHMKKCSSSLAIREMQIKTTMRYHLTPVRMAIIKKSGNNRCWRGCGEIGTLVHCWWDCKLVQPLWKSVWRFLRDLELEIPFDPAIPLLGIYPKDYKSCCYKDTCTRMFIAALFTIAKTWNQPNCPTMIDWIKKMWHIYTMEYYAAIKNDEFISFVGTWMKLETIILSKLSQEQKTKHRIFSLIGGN

IC50 | Structure (SMILES)
> 1000 nM | Cc1cn([C@@H]2O[C@@](CO)(CCl)[C@@H](O)[C@@H]2F)c(=O)[nH]c1=O [Compound 176]
50 to 100 nM | [N-]=[N+]=N[C@]1(CO)O[C@@H](c2cc(I)c3c(N)ncnn23)C[C@@H]1O [Compound 161, (2R,3S,5R)-5-(4-amino-5-iodopyrrolo[2,1-f][1,2,4]triazin-7-yl)-2-azido-2-(hydroxymethyl)tetrahydrofuran-3-ol]
> 1000 nM | CSC[C@]1(CO)O[C@@H](n2cc(F)c(N)nc2=O)[C@@H](F)[C@@H]1O [Compound 135]
100 to 250 nM | CC[C@]1(COC(=O)C(C)C)O[C@@H](n2ccc(N)nc2=O)C[C@@H]1OC(=O)C(C)C [Compound 52, [(2R,3S,5R)-5-(4-amino-2-oxopyrimidin-1-yl)-2-ethyl-3-[(2-methylpropanoyl)oxy]oxolan-2-yl] methyl 2-methylpropanoate]
≤ 50 nM | C=C[C@]1(CO)O[C@@H](n2ccc(N)nc2=O)[C@@H](F)[C@@H]1O [Compound 47, 4-amino-1-((2R,3S,4R,5R)-3-fluoro-4-hydroxy-5-(hydroxymethyl)-5-vinyltetrahydrofuran-2-yl)pyrimidin-2(1H)-one]
≤ 50 nM | Nc1ccn([C@@H]2O[C@H](CO)[C@@H](O)C2(F)F)c(=O)n1 [Compound 111, 4-amino-1-((2R,4R,5R)-3,3-difluoro-4-hydroxy-5-(hydroxymethyl)tetrahydrofuran-2-yl)pyrimidin-2(1H)-one]
> 1000 nM | CC(C)[C@]1(CO)O[C@@H](n2ccc(N)nc2=O)C[C@@H]1O [Compound 55, 4-amino-1-[(2R,4S,5R)-4-hydroxy-5-(hydroxymethyl)-5-isopropyloxolan-2-yl] pyrimidin-2-one]
100 to 250 nM | CC[C@]1(CO)O[C@@H](n2cnc3c(N)nc(F)nc32)[C@@H](F)[C@@H]1O [Compound 81, (2R,3R,4S,5R)-5-(6-amino-2-fluoropurin-9-yl)-2-ethyl-4-fluoro-2-(hydroxymethyl)oxolan-3-ol]
≤ 50 nM | Nc1nc(=O)n([C@@H]2O[C@@](CO)(CCl)[C@@H](O)[C@@H]2O)cc1F [Compound 73, 4-amino-1-((2R,3S,4S,5R)-5-(chloromethyl)-3,4-dihydroxy-5-(hydroxymethyl)tetrahydrofuran-2-yl)-5-fluoropyrimidin-2(1H)-one]
250 to 1000 nM | Nc1nc(=O)n([C@H]2C[C@H](O)[C@](CO)(C3CC3)O2)cc1F [Compound 120, 4-amino-1-[(2R,4S,5R)-5-cyclopropyl-4-hydroxy-5-(hydroxymethyl)oxolan-2-yl]-5-fluoropyrimidin-2-one]
50 to 100 nM | [N-]=[N+]=N[C@]1(CO)O[C@@H](n2ccc(N)nc2=O)C[C@@H]1O [Compound 49, 4-amino-1-((2R,4S,5R)-5-azido-4-hydroxy-5-(hydroxymethyl)tetrahydrofuran-2-yl)pyrimidin-2(1H)-one]
100 to 250 nM | C=CCC1(CO)O[C@@H](n2ccc(N)nc2=O)C[C@@H]1O (stereo partly drawn) [Compound 56, 1-((2R,4S)-5-allyl-4-hydroxy-5-(hydroxymethyl)tetrahydrofuran-2-yl)-4-aminopyrimidin-2(1H)-one]
100 to 250 nM | CC[C@]1(CO)O[C@@H](n2cnc3c(=O)[nH]c(N)nc32)[C@@H](F)[C@@H]1O [Compound 68, 2-amino-9-((2R,3S,4R,5R)-5-ethyl-3-fluoro-4-hydroxy-5-(hydroxymethyl)tetrahydrofuran-2-yl)-1,9-dihydro-6H-purin-6-one]
> 1000 nM | CCCC1(CO)O[C@@H](n2ccc(N)nc2=O)C[C@@H]1O (stereo partly drawn) [Compound 57, 4-amino-1-((2R,4S,5R)-4-hydroxy-5-(hydroxymethyl)-5-propyltetrahydrofuran-2-yl)pyrimidin-2(1H)-one]
≤ 50 nM | Nc1nc(=O)n([C@@H]2O[C@@](CO)(CBr)[C@@H](O)[C@@H]2F)cc1F [Compound 86, 4-amino-1-[(2R,3S,4R,5R)-5-(bromomethyl)-3-fluoro-4-hydroxy-5-(hydroxymethyl)oxolan-2-yl]-5-fluoropyrimidin-2-one]
> 1000 nM | Nc1nc(=O)n([C@@H]2O[C@](/C=C\Cl)(CO)[C@@H](O)[C@@H]2F)cc1F [Compound 132, 4-amino-1-[(2R,3S,4R,5R)-5-(2-chloroethenyl)-3-fluoro-4-hydroxy-5(Z)-(hydroxymethyl)oxolan-2-yl]-5-fluoropyrimidin-2-one]
≤ 50 nM | Nc1nc(=O)n([C@H]2C[C@H](O)[C@](CO)(C(F)F)O2)cc1F [Compound 65, 4-amino-1-[(2R,4S,5R)-5-(difluoromethyl)-4-hydroxy-5-(hydroxymethyl)oxolan-2-yl]-5-fluoropyrimidin-2-one]

The remaining lines, values behind:

Structure (SMILES) | IC50
Nc1ccn([C@H]2C[C@@H](O)[C@](CO)(CCl)O2)c(=O)n1 [Compound 59, 4-amino-1-[(2R,4R,5R)-5-(chloromethyl)-4-hydroxy-5-(hydroxymethyl)oxolan-2-yl] pyrimidin-2-one] | > 1000 nM
Nc1nc(=O)n([C@H]2C[C@H](O)[C@](CO)(C(F)(F)F)O2)cc1F [Compound 66, 4-amino-5-fluoro-1-((2R,4S,5R)-4-hydroxy-5-(hydroxymethyl)-5-(trifluoromethyl)tetrahydrofuran-2-yl)pyrimidin-2(1H)-one] | 250 to 1000 nM
C=C[C@]1(CO)O[C@@H](n2cnc3c(N)nc(F)nc32)C[C@@H]1O [Compound 109, (2R,3S,5R)-5-(6-amino-2-fluoro-9H-purin-9-yl)-2-(hydroxymethyl)-2-vinyltetrahydrofuran-3-ol] | ≤ 50 nM
C=C=C[C@]1(CO)O[C@@H](n2cnc3c(N)nc(F)nc32)C[C@@H]1O [Compound 164, (2R,3S,5R)-5-(6-amino-2-fluoropurin-9-yl)-2-(hydroxymethyl)-2-(propa-1,2-dien-1-yl)oxolan-3-ol] | 250 to 1000 nM
CO[C@]1(CO)O[C@@H](n2ccc(N)nc2=O)C[C@@H]1O [Compound 48, 4-amino-1-((2R,4S,5R)-4-hydroxy-5-(hydroxymethyl)-5-methoxytetrahydrofuran-2-yl)pyrimidin-2(1H)-one] | 50 to 100 nM
Nc1nc(F)nc2c1ncn2[C@H]1C[C@H](O)[C@](CO)(CCl)O1 [Compound 8, (2R,3S,5R)-5-(6-amino-2-fluoro-9H-purin-9-yl)-2-(chloromethyl)-2-(hydroxymethyl)tetrahydrofuran-3-ol] | 100 to 250 nM
Nc1nc(=O)n([C@@H]2O[C@@](CO)(C3CC3)[C@@H](O)[C@@H]2F)cc1F [Compound 122, 4-amino-1-[(2R,3S,4R,5R)-5-cyclopropyl-3-fluoro-4-hydroxy-5-(hydroxymethyl)oxolan-2-yl]-5-fluoropyrimidin-2-one] | 250 to 1000 nM
CC[C@]1(CO)O[C@@H](n2cc(F)c(N)nc2=O)[C@@H](F)[C@@H]1O [Compound 77, 4-amino-1-[(2R,3S,4R,5R)-5-ethyl-3-fluoro-4-hydroxy-5-(hydroxymethyl)oxolan-2-yl]-5-fluoropyrimidin-2-one] | ≤ 50 nM
Nc1ccn([C@@H]2O[C@@](CO)(CCl)[C@@H](O)[C@H]2F)c(=O)n1 [Compound 31, 4-amino-1-((2R,3R,4R,5R)-5-(chloromethyl)-3-fluoro-4-hydroxy-5-(hydroxymethyl)tetrahydrofuran-2-yl)pyrimidin-2(1H)-one] | ≤ 50 nM
C=C[C@]1(CO)O[C@@H](n2cnc3c(=O)[nH]c(N)nc32)[C@@H](F)[C@@H]1O [Compound 63, 2-amino-9-[(2R,3S,4R,5R)-5-ethenyl-3-fluoro-4-hydroxy-5-(hydroxymethyl)oxolan-2-yl]-1H-purin-6-one] | 250 to 1000 nM
[N-]=[N+]=N[C@]1(CO)O[C@@H](n2cnc3c(=O)[nH]c(N)nc32)C[C@@H]1O [Compound 108, 2-amino-9-((2R,4S,5R)-5-azido-4-hydroxy-5-(hydroxymethyl)tetrahydrofuran-2-yl)-1,9-dihydro-6H-purin-6-one] | 50 to 100 nM
CC[C@]1(CO)O[C@@H](n2cnc3c(O)nc(N)nc32)C[C@@H]1O [Compound 115, 2-amino-9-((2R,4S,5R)-5-ethyl-4-hydroxy-5-(hydroxymethyl)tetrahydrofuran-2-yl)-1,9-dihydro-6H-purin-6-one] | ≤ 50 nM

same assay, conditions: HeLa L1 artificial-intron reporter cells, doxycycline 500 ng/mL, 72 h, numeric bounds

IC50 | Structure (SMILES)
> 30000 nM | Nc1nc2c(ncn2[C@@H]2O[C@@](CO)(CCl)[C@@H](O)[C@@H]2O)c(=O)[nH]1 [Compound 94, 2-amino-9-[(2R,3S,4S,5R)-5-(chloromethyl)-3,4-dihydroxy-5-(hydroxymethyl)oxolan-2-yl]-1H-purin-6-one]
> 30000 nM | CC(C)C(=O)OC[C@@]1(CCl)O[C@@H](n2ncc(N)nc2=O)C[C@@H]1OC(=O)C(C)C [Compound 174, (2R,3S,5R)-5-(5-amino-3-oxo-1,2,4-triazin-2(3H)-yl)-2-(chloromethyl)-2-((isobutyryloxy)methyl)tetrahydrofuran-3-yl isobutyrate]

Further lines, the compound ahead of its results:

Structure (SMILES) | IC50
Nc1nc(=O)n([C@@H]2O[C@@](CO)(C(F)(F)F)[C@@H](O)[C@@H]2O)cc1F [Compound 95, 4-amino-1-((2R,3S,4S,5R)-3,4-dihydroxy-5-(hydroxymethyl)-5-(trifluoromethyl)tetrahydrofuran-2-yl)-5-fluoropyrimidin-2(1H)-one] | > 30000 nM
Nc1ncnn2c([C@H]3C[C@H](O)[C@](CO)(CF)O3)ccc12 [Compound 79, (2R,3S,5R)-5-(4-aminopyrrolo[2,1-f] [1,2,4]triazin-7-yl)-2-(fluoromethyl)-2-(hydroxymethyl)tetrahydrofuran-3-ol] | > 30000 nM
